This passage reports IC50 results from patent publication US9624175B2, “Fused-bicyclic aryl quinolinone derivatives as mutant-isocitrate dehydrogenase inhibitors” (Forma Therapeutics, Inc., priority 2015, dated 2017).

The target of assay [1] is IDH1-R132C recombinant protein (Homo sapiens (Human), UniProt O75874, R132C). The assay is described as follows: IDH1-R132C enzymatic assay (NADPH consumption, diaphorase/resazurin readout). The format is biochemical. As to conditions: inhibition of NADPH consumption, 10 nM IDH1-R132C; read-out: Enzyme IDH1 R132C IC50. As to the method:
(§1) Assays were performed in a 384-well black plate. An aliquot of 250 nL of compound was incubated with 10 μL of 30 nM IDH1-R132H or 10 nM IDH1-R132C recombinant protein in assay buffer (50 mM Tris pH=7.5, 150 mM NaCl, 5 mM MgCl2, 0.1% (w/v) Bovine Serum Albumin, and 0.01% Triton X-100) in each well at 25° C. for 15 minutes. After the plate was centrifuged briefly, an aliquot of 10 μL of 2 mM α-ketoglutarate and 20 μM NADPH solution prepared in assay buffer was then added to each well and the reaction was maintained at 25° C. for 45 minutes. An aliquot of 10 μL of diaphorase solution (0.15 U/mL diaphorase and 30 μM Resazurin in assay buffer) was added to each well. The plate was maintained at 25° C. for 15 minutes and then read on a plate reader with excitation and emission wavelengths at 535 nm and 590 nm, respectively. The IC50 of a given compound was calculated by fitting the dose response curve of inhibition of NADPH consumption at a given concentration with the four parameter logistic equation.

In assay [2] the target is IDH1-R132H recombinant protein (Homo sapiens (Human), UniProt O75874, R132H). In words: IDH1-R132H enzymatic assay (NADPH consumption, diaphorase/resazurin readout). In kind it is biochemical. The following applies: inhibition of NADPH consumption, 30 nM IDH1-R132H; read-out: Enzyme IDH1 R132H IC50. As to the method: as §1

SMILES strings stand for the structures.

IDH1-R132H recombinant protein, sequence (O75874 whole entry R132H): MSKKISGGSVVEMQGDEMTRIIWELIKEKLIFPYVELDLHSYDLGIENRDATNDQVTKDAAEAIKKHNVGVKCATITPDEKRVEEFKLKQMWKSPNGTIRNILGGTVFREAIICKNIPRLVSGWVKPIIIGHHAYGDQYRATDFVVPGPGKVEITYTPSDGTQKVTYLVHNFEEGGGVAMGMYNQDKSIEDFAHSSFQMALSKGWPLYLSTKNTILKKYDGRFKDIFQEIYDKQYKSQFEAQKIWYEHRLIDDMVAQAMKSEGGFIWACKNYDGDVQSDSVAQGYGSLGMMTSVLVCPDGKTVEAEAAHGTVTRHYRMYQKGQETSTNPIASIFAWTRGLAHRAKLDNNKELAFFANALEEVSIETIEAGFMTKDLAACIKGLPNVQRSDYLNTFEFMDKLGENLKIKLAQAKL
IDH1-R132C recombinant protein, sequence (O75874 whole entry R132C): as the sequence (O75874 whole entry R132H) above, with H132C counted along it

One may read the IC50 as the concentration that gives 50% inhibition. As for `O=c1[nH]c2ccc(Cl)cc2cc1CNc1cccc2ocnc12` [Compound I-1, 3-{[(1,3-benzoxazol-4-yl)amino]methyl}-6-chloro-1,2-dihydroquinolin-2-one], the IC50 in assay [1] and in assay [2] was 100 to 1000 nM each time.
On to `C[C@H](Nc1ncc2oc(=O)n(C)c2n1)c1cc2cc(Cl)ccc2[nH]c1=O` [Compound I-57, 6-chloro-3-[(1S)-1-({3-methyl-2-oxo-2H,3H-[1,3]oxazolo[4,5-d]pyrimidin-5-yl}amino)ethyl]-1,2-dihydroquinolin-2-one], for which the IC50 is 100 to 1000 nM in assay [1] and below 100 nM in assay [2].
The like results for `C[C@H](Nc1ncc2c(n1)N(C)C(=O)OC2)c1cc2cc(Cl)c(OCc3ccccn3)cc2[nH]c1=O` [Compound I-48, 6-chloro-3-[(1S)-1-({1-methyl-2-oxo-1H,2H,4H-pyrimido[4,5-d][1,3]oxazin-7-yl}amino)ethyl]-7-(pyridin-2-ylmethoxy)-1,2-dihydroquinolin-2-one] were, in that order, below 100 nM and below 100 nM.
Take `C[C@H](Nc1ncc2oc(=O)[nH]c2n1)c1cc2cc(Cl)ccc2[nH]c1=O` [Compound I-56, 6-chloro-3-[(1S)-1-({2-oxo-2H,3H-[1,3]oxazolo[4,5-d]pyrimidin-5-yl}amino)ethyl]-1,2-dihydroquinolin-2-one]: the IC50 in assay [1] was 100 to 1000 nM; in assay [2], below 100 nM.
For `CC(=O)N1CCOc2c1ccnc2N[C@@H](C)c1cc2cc(Cl)ccc2[nH]c1=O` [Compound I-44, 3-[(1S)-1-({1-acetyl-1H,2H,3H-pyrido[3,4-b][1,4]oxazin-5-yl}amino)ethyl]-6-chloro-1,2-dihydroquinolin-2-one] the same measures were above 10000 nM and 1000 to 10000 nM.
On to `CC(C)Cn1c(=O)oc2cnc(N[C@@H](C)c3cc4cc(Cl)ccc4[nH]c3=O)nc21` [Compound I-55, 6-chloro-3-[(1S)-1-{[3-(2-methylpropyl)-2-oxo-2H,3H-[1,3]oxazolo[4,5-d]pyrimidin-5-yl]amino}ethyl]-1,2-dihydroquinolin-2-one], for which the IC50 in assay [1] and in assay [2] was below 100 nM each time.
As to `C[C@H](Nc1ncc2c(n1)NC(=O)OC2)c1cc2cc(Cl)ccc2[nH]c1=O` [Compound I-49, 6-chloro-3-[(1S)-1-({2-oxo-1H,2H,4H-pyrimido[4,5-d][1,3]oxazin-7-yl}amino)ethyl]-1,2-dihydroquinolin-2-one], the values for the IC50 in assay [1] and in assay [2] were 100 to 1000 nM and below 100 nM, respectively.
The like results for `C[C@H](Nc1ncc2cn[nH]c2n1)c1cc2cc(Cl)ccc2[nH]c1=O` [Compound I-45, 6-chloro-3-[(1S)-1-({1H-pyrazolo[3,4-d]pyrimidin-6-yl}amino)ethyl]-1,2-dihydroquinolin-2-one] were, in that order, 1000 to 10000 nM and 100 to 1000 nM.
Take `COc1cc2[nH]c(=O)c(C(C)Nc3ncc4c(n3)N(C)C(=O)OC4)cc2cc1Cl` (racemic) [Compound I-50, 6-chloro-7-methoxy-3-[1-({1-methyl-2-oxo-1H,2H,4H-pyrimido[4,5-d][1,3]oxazin-7-yl}amino)ethyl]-1,2-dihydroquinolin-2-one]: the IC50 in assay [1] and in assay [2] was below 100 nM each time.
Turning to `O=c1ccc2cc(NCc3cc4cc(Cl)ccc4[nH]c3=O)ccc2o1` [Compound I-4, 6-chloro-3-{[(2-oxo-2H-chromen-6-yl)amino]methyl}-1,2-dihydroquinolin-2-one], the half-inhibitory concentration (IC50) is above 10000 nM in assay [1] and 100 to 1000 nM in assay [2].
In the case of `C[C@H](Nc1ncc2c(n1)NC(=O)CC2)c1cc2cc(Cl)ccc2[nH]c1=O` [Compound I-62, 6-chloro-3-[(1S)-1-({7-oxo-5H,6H,7H,8H-pyrido[2,3-d]pyrimidin-2-yl}amino)ethyl]-1,2-dihydroquinolin-2-one], the IC50 in assay [1] and in assay [2] was 1000 to 10000 nM throughout.
For `C[C@H](Nc1ncc2c(n1)N(C)C(=O)C2)c1cc2cc(Cl)ccc2[nH]c1=O` [Compound I-61, 6-chloro-3-[(1S)-1-({7-methyl-6-oxo-5H,6H,7H-pyrrolo[2,3-d]pyrimidin-2-yl}amino)ethyl]-1,2-dihydroquinolin-2-one], the IC50 in assay [1] and in assay [2] was 100 to 1000 nM in each case.
`O=c1[nH]c2ccc(Cl)cc2cc1CNc1ccc2c(c1)OCCO2` [Compound I-33, 6-chloro-3-{[(2,3-dihydro-1,4-benzodioxin-6-yl)amino]methyl}-1,2-dihydroquinolin-2-one]: in assay [2], the IC50 was above 10000 nM.
Consider `CC(C)(C)c1ccc2[nH]c(=O)c(CNc3ccc4[nH]ncc4c3)cc2c1` [Compound I-41, 6-tert-butyl-3-{[(1H-indazol-5-yl)amino]methyl}-1,2-dihydroquinolin-2-one], for which, in assay [2], the IC50 lay within 1000 to 10000 nM.
The same measure, in the same setting: then `COc1ccc2[nH]c(=O)c(CNc3ccc4nc(C)ccc4c3)cc2c1` [Compound I-35, 6-methoxy-3-{[(2-methylquinolin-6-yl)amino]methyl}-1,2-dihydroquinolin-2-one], with above 10000 nM; and `Cc1cc2cc(CNc3ccc4cn[nH]c4c3)c(=O)[nH]c2cc1C` [Compound I-31, 3-{[(1H-indazol-6-yl)amino]methyl}-6,7-dimethyl-1,2-dihydroquinolin-2-one], with above 10000 nM.
With `CN1C(=O)CCc2cc(NCc3cc4cc(Cl)ccc4[nH]c3=O)ccc21` [Compound I-5, 6-chloro-3-{[(1-methyl-2-oxo-1,2,3,4-tetrahydroquinolin-6-yl)amino]methyl}-1,2-dihydroquinolin-2-one], the IC50 in assay [2] lay in the range of 100 to 1000 nM.
Same read-out and setting: in the case of `O=c1[nH]c2ccc(Cl)cc2cc1CNc1cccc2cccnc12` [Compound I-8, 6-chloro-3-{[(quinolin-8-yl)amino]methyl}-1,2-dihydroquinolin-2-one] it was 1000 to 10000 nM; in that of `O=c1[nH]c2ccc(Cl)cc2cc1CNc1ccc2[nH]ncc2c1` [Compound I-38, 6-chloro-3-{[(1H-indazol-5-yl)amino]methyl}-1,2-dihydroquinolin-2-one], above 10000 nM; in that of `COc1ccc2[nH]c(=O)c(CNc3ccc4sc(C)nc4c3)cc2c1` [Compound I-21, 6-methoxy-3-{[(2-methyl-1,3-benzothiazol-5-yl)amino]methyl}-1,2-dihydroquinolin-2-one], above 10000 nM.
As for `COc1cc2cc(CNc3ccc4[nH]c(-c5ccc6[nH]cnc6c5)nc4c3)c(=O)[nH]c2cc1OC` [Compound I-12, 3-({[2-(1H-1,3-benzodiazol-5-yl)-1H-1,3-benzodiazol-5-yl]amino}methyl)-6,7-dimethoxy-1,2-dihydroquinolin-2-one], in assay [2], the IC50 is above 10000 nM.
Still for that read-out and setting: in the case of `O=c1[nH]c2ccc(Cl)cc2cc1CNc1cccc2ccncc12` [Compound I-15, 6-chloro-3-{[(isoquinolin-8-yl)amino]methyl}-1,2-dihydroquinolin-2-one] it was above 10000 nM.
For the compound `O=C1CCc2ccc(NCc3cc4cc(Cl)ccc4[nH]c3=O)cc2N1` [Compound I-18, 6-chloro-3-{[(2-oxo-1,2,3,4-tetrahydroquinolin-7-yl)amino]methyl}-1,2-dihydroquinolin-2-one], in assay [2], the IC50 is above 10000 nM.
Turning to `Cc1ccc2cc(NCc3cc4cc(Cl)ccc4[nH]c3=O)ccc2n1` [Compound I-32, 6-chloro-3-{[(2-methylquinolin-6-yl)amino]methyl}-1,2-dihydroquinolin-2-one], in assay [2], the IC50 is above 10000 nM.
